The test concerns the target BRAF V600E (Homo sapiens, UniProt P15056, V600E). As to the kind of experiment: HiBiT cellular BRAF^V600E degradation assay. As to conditions: for DC50: concentration at which 50% of total cellular BRAF^V600E is degraded; for Emax: read-out: HiBit 24 h Emax. It is filed as cell-based. (With HiBiT, luminescence reflects the tagged protein that the partner subunit can reach.)

Where [1] appears, read: A375.10 cells, 24 h, residual protein remaining in the cell.

Molecules are shown by their SMILES. Like-named read-outs stand apart in the source and are kept apart here.

From patent US12486253B2, “Therapeutics for the degradation of mutant BRAF” (C4 THERAPEUTICS, INC., priority 2021, dated 2025) come the findings set out here.

BRAF V600E, sequence (P15056 whole entry V600E): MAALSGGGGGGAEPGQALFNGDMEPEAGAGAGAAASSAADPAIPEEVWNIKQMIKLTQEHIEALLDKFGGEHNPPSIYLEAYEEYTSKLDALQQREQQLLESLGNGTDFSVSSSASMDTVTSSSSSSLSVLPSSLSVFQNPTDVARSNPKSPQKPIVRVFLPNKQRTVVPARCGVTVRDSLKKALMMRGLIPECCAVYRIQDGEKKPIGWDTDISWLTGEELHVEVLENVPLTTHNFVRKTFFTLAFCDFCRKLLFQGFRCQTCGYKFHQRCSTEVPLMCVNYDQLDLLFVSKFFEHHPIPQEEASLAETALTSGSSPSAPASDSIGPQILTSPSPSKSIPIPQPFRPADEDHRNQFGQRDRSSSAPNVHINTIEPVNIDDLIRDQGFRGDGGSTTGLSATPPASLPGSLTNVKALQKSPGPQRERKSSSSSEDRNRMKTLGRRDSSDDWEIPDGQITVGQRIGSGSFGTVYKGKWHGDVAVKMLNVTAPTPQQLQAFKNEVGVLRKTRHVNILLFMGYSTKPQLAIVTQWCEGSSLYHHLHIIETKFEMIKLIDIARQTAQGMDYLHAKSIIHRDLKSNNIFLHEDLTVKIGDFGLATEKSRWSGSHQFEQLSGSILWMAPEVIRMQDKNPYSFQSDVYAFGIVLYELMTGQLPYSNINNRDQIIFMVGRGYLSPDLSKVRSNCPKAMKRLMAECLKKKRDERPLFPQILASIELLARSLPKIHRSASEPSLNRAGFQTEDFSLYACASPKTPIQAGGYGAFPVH

Take `CN(CCF)S(=O)(=O)Nc1ccc(F)c(Oc2ccc3ncn(-c4cnc(N5CCN(C(=O)CN6CCC(c7ccc(N[C@H]8CCC(=O)NC8=O)cc7F)CC6)CC5)nc4)c(=O)c3c2)c1C#N` [Example 121, 6-[2-cyano-6-fluoro-3-[[2-fluoroethyl(methyl)sulfamoyl]amino]phenoxy]-3-[2-[4-[2-[4-[4-[[(3S)-2,6-dioxopiperidin-3-yl]amino]-2-fluorophenyl]piperidin-1-yl]acetyl]piperazin-1-yl]pyrimidin-5-yl]-4-oxoquinazoline]: it took 14.6 nM to reach half-maximal degradation (A375.10 cells, 24 h) (DC50). For the same compound, the Emax (in general, the maximal effect, on the per cent scale that the assay sets) under setting [1] was 7.8%.

For `CO[C@@H]1CCN(S(=O)(=O)Nc2ccc(F)c(Oc3ccc4ncn(-c5cnc(N6CCN(C(=O)CN7CCC(c8ccc(N[C@H]9CCC(=O)NC9=O)cc8F)CC7)CC6)nc5)c(=O)c4c3)c2C#N)C1` [Example 96, (3R)—N-[2-cyano-3-[3-[2-[4-[2-[4-[4-[[(3S)-2,6-dioxopiperidin-3-yl]amino]-2-fluorophenyl]piperidin-1-yl]acetyl]piperazin-1-yl]pyrimidin-5-yl]-4-oxoquinazolin-6-yl]oxy-4-fluorophenyl]-3-methoxypyrrolidine-1-sulfonamide], the Emax was 8.43%. The DC50 (as a rule, the concentration at which degradation of the target reaches its halfway point) (A375.10 cells, 24 h) is 9.91 nM.

`CCN(C)S(=O)(=O)Nc1ccc(F)c(Oc2ccc3ncn([C@H]4CCC5(CCN(C(=O)CN6CCC(c7ccc8c(N9CCC(=O)NC9=O)nn(C)c8c7)CC6)CC5)C4)c(=O)c3c2)c1C#N` [Example 154, 6-[2-cyano-3-[[ethyl(methyl)sulfamoyl]amino]-6-fluorophenoxy]-3-[(3S)-8-[2-[4-[3-(2,4-dioxo-1,3-diazinan-1-yl)-1-methylindazol-6-yl]piperidin-1-yl]acetyl]-8-azaspiro[4.5]decan-3-yl]-4-oxoquinazoline] displayed a DC50 (A375.10 cells, 24 h) of 24.6 nM. Besides, under setting [1], the Emax came to 11.1%.

As for `CC(C)S(=O)(=O)Nc1ccc(F)c(Oc2ccc3ncn(-c4cnc(N5CCN(C(=O)CN6CCC(c7ccc(N[C@@H]8CCC(=O)NC8=O)cc7F)CC6)CC5)nc4)c(=O)c3c2)c1C#N` [Example 118, N-[2-cyano-3-[3-[2-[4-[2-[4-[4-[[(3R)-2,6-dioxopiperidin-3-yl]amino]-2-fluorophenyl]piperidin-1-yl]acetyl]piperazin-1-yl]pyrimidin-5-yl]-4-oxoquinazolin-6-yl]oxy-4-fluorophenyl]propane-2-sulfonamide], for the setting “A375.10 cells, 24 h”, the DC50 was determined as 18.7 nM. Moreover, the Emax under setting [1] was 9.98%.

Where the note is “A375.10 cells, 24 h”, `CCN(C)S(=O)(=O)Nc1ccc(F)c(Oc2ccc3ncn(-c4cnc(N5CCN(C(=O)CN6CCC(c7c(F)cc(NC8CCC(=O)NC8=O)cc7OC)CC6)CC5)nc4)c(=O)c3c2)c1C#N` (stereo not drawn) [Example 89, 6-[2-cyano-3-[[ethyl(methyl)sulfamoyl]amino]-6-fluorophenoxy]-3-[2-[4-[2-[4-[4-[(2,6-dioxopiperidin-3-yl)amino]-2-fluoro-6-methoxyphenyl]piperidin-1-yl]acetyl]piperazin-1-yl]pyrimidin-5-yl]-4-oxoquinazoline] showed a DC50 of 33 nM. Further, the Emax under setting [1] is 11.5%.

Take `CCN(C)S(=O)(=O)Nc1ccc(F)c(Oc2ccc3ncn([C@H]4CCC5(CCN(C(=O)CN6CCN(c7ccc(C8CCC(=O)NC8=O)cc7F)CC6)CC5)C4)c(=O)c3c2)c1C#N` (stereo partly drawn) [Example 55, 6-[2-cyano-3-[[ethyl(methyl)sulfamoyl]amino]-6-fluorophenoxy]-3-[(3S)-8-[2-[4-[4-(2,6-dioxopiperidin-3-yl)-2-fluorophenyl]piperazin-1-yl]acetyl]-8-azaspiro[4.5]decan-3-yl]-4-oxoquinazoline]: the DC50 (A375.10 cells, 24 h) stood at 30 nM. Moreover, the Emax under setting [1] was 14.7%.

Take `Cn1nc(N2CCC(=O)NC2=O)c2cc(F)c(N3CCC(O)(CC(=O)N4CCC5(CC4)C[C@@H](n4cnc6ccc(Oc7c(F)ccc(NS(=O)(=O)N8CCCCC8)c7C#N)cc6c4=O)CO5)CC3)cc21` [Example 187, N-[2-cyano-3-[3-[(3R)-8-[2-[1-[3-(2,4-dioxo-1,3-diazinan-1-yl)-5-fluoro-1-methylindazol-6-yl]-4-hydroxypiperidin-4-yl]acetyl]-1-oxa-8-azaspiro[4.5]decan-3-yl]-4-oxoquinazolin-6-yl]oxy-4-fluorophenyl]piperidine-1-sulfonamide]: the DC50 (A375.10 cells, 24 h) was 38.8 nM. In addition, the Emax under setting [1] was found to be 24.1%.

Regarding `CCN(C)S(=O)(=O)Nc1ccc(F)c(Oc2ccc3ncn([C@H]4CCC5(CCN(C(=O)CN6CCC(c7ccc(NC8CCC(=O)NC8=O)cc7F)CC6)CC5)C4)c(=O)c3c2)c1C#N` (single isomer, unassigned) [Example 40], it took 8.13 nM to reach half-maximal degradation (A375.10 cells, 24 h) (DC50). For the same compound, the maximum response (Emax) under setting [1] is 7.08%.

Compound `CCN(C)S(=O)(=O)Nc1ccc(F)c(Oc2ccc3ncc(OCC4CCN(C(=O)CN5CCC(c6ccc(NC7CCC(=O)NC7=O)cc6F)CC5)CC4)nc3c2)c1C#N` (stereo not drawn) [Example 216, 7-[2-cyano-3-[[ethyl(methyl)sulfamoyl]amino]-6-fluorophenoxy]-2-[[1-[2-[4-[4-[(2,6-dioxopiperidin-3-yl)amino]-2-fluorophenyl]piperidin-1-yl]acetyl]piperidin-4-yl]methoxy]quinoxaline] displayed a DC50 (A375.10 cells, 24 h) of 25.2 nM. In addition, the Emax under setting [1] was 10.1%.

On to `COC1CN(S(=O)(=O)Nc2ccc(F)c(Oc3ccc4ncn([C@H]5COC6(CCN(C(=O)CC7(O)CCN(c8cc9c(cc8F)c(N8CCC(=O)NC8=O)nn9C)CC7)CC6)C5)c(=O)c4c3)c2C#N)C1` [Example 193, N-[2-cyano-3-[3-[(3R)-8-[2-[1-[3-(2,4-dioxo-1,3-diazinan-1-yl)-5-fluoro-1-methylindazol-6-yl]-4-hydroxypiperidin-4-yl]acetyl]-1-oxa-8-azaspiro[4.5]decan-3-yl]-4-oxoquinazolin-6-yl]oxy-4-fluorophenyl]-3-methoxyazetidine-1-sulfonamide], for which the DC50 (A375.10 cells, 24 h) amounted to 142 nM. Also, under setting [1], the Emax stood at 33.8%.

The compound `CO[C@H]1CCN(S(=O)(=O)Nc2ccc(F)c(Oc3ccc4ncn(-c5cnc(N6CCN(C(=O)CN7CCC(c8ccc(N[C@H]9CCC(=O)NC9=O)cc8F)CC7)CC6)nc5)c(=O)c4c3)c2C#N)C1` [Example 111, (3S)—N-[2-cyano-3-[3-[2-[4-[2-[4-[4-[[(3S)-2,6-dioxopiperidin-3-yl]amino]-2-fluorophenyl]piperidin-1-yl]acetyl]piperazin-1-yl]pyrimidin-5-yl]-4-oxoquinazolin-6-yl]oxy-4-fluorophenyl]-3-methoxypyrrolidine-1-sulfonamide] displayed a DC50 (A375.10 cells, 24 h) of 18.6 nM. The Emax under setting [1] amounted to 10.3%.

Where the note is “A375.10 cells, 24 h”, `CCN(C)S(=O)(=O)Nc1ccc(F)c(Oc2ccc3ncn([C@H]4COC5(CCN(C(=O)CN6CCC(c7ccc(NC8CCC(=O)NC8=O)cc7F)CC6)CC5)C4)c(=O)c3c2)c1C#N` (single isomer, unassigned) [Example 34] displayed a DC50 of 29.9 nM. Moreover, the Emax under setting [1] came to 10.8%.

The compound `CCN(C)S(=O)(=O)Nc1ccc(F)c(Oc2ccc3ncc([C@H]4COC5(CCN(C(=O)CN6CCC(c7ccc(NC8CCC(=O)NC8=O)cc7F)CC6)CC5)C4)nc3c2)c1C#N` (stereo partly drawn) [Example 224, (3S)-3-[7-[2-cyano-3-[[ethyl(methyl)sulfamoyl]amino]-6-fluorophenoxy]quinoxalin-2-yl]-8-[2-[4-[4-[(2,6-dioxopiperidin-3-yl)amino]-2-fluorophenyl]piperidin-1-yl]acetyl]-1-oxa-8-azaspiro[4.5]decane] came in with a DC50 (A375.10 cells, 24 h) of 22.9 nM. In addition, the Emax under setting [1] was found to be 9.09%.

`CCN(C)S(=O)(=O)Nc1ccc(F)c(Oc2ccc3ncn(-c4cnn(C5CCN(C(=O)CN6CCC(c7ccc(C8CCC(=O)NC8=O)cc7F)CC6)CC5)c4)c(=O)c3c2)c1C#N` (stereo not drawn) [Example 17, 6-[2-cyano-3-[[ethyl(methyl)sulfamoyl]amino]-6-fluorophenoxy]-3-[1-[1-[2-[4-[4-(2,6-dioxopiperidin-3-yl)-2-fluorophenyl]piperidin-1-yl]acetyl]piperidin-4-yl]pyrazol-4-yl]-4-oxoquinazoline] had a DC50 (A375.10 cells, 24 h) of 44 nM. Moreover, the Emax under setting [1] was 20.7%.

For the compound `CCN(C)S(=O)(=O)Nc1ccc(F)c(Oc2ccc3ncn([C@H]4COC5(CCN(C(=O)CN6CCC(c7ccc(N[C@@H]8CCC(=O)NC8=O)cc7F)CC6)CC5)C4)c(=O)c3c2)c1C#N` [Example 42, (3R)-3-[6-[2-cyano-3-[[ethyl(methyl)sulfamoyl]amino]-6-fluorophenoxy]-4-oxoquinazolin-3-yl]-8-[2-[4-[4-[[(3R)-2,6-dioxopiperidin-3-yl]amino]-2-fluorophenyl]piperidin-1-yl]acetyl]-1-oxa-8-azaspiro[4.5]decane], the DC50 (A375.10 cells, 24 h) was determined as 22.1 nM. Moreover, the Emax under setting [1] came to 8.88%.

In the case of `CCN(C)S(=O)(=O)Nc1ccc(F)c(Oc2ccc3ncn(CCCC4CCN(C(=O)CN5CCC(c6ccc(C7CCC(=O)NC7=O)cc6F)CC5)CC4)c(=O)c3c2)c1C#N` (stereo not drawn) [Example 5, 6-[2-cyano-3-[[ethyl(methyl)sulfamoyl]amino]-6-fluorophenoxy]-3-[3-[1-[2-[4-[4-(2,6-dioxopiperidin-3-yl)-2-fluorophenyl]piperidin-1-yl]acetyl]piperidin-4-yl]propyl]-4-oxoquinazoline], the DC50 (A375.10 cells, 24 h) amounted to 49.3 nM. In addition, the Emax under setting [1] is 13.1%.

`CCN(C)S(=O)(=O)Nc1ccc(F)c(Oc2ccc3ncn(-c4cnc(N5CCN(C(=O)CN6CCC(c7ccc(N[C@@H]8CCC(=O)NC8=O)cc7F)CC6)CC5)nc4)c(=O)c3c2O)c1C#N` [Example 137, 6-[2-cyano-3-[[ethyl(methyl)sulfamoyl]amino]-6-fluorophenoxy]-3-[2-[4-[2-[4-[4-[[(3R)-2,6-dioxopiperidin-3-yl]amino]-2-fluorophenyl]piperidin-1-yl]acetyl]piperazin-1-yl]pyrimidin-5-yl]-5-hydroxy-4-oxoquinazoline] registered a DC50 (A375.10 cells, 24 h) of 34.2 nM. In addition, the Emax under setting [1] is 25.1%.

With `CCN(C)S(=O)(=O)Nc1ccc(F)c(Oc2ccc3ncn(C4CC5(CCN(C(=O)CN6CCC(c7ccc(NC8CCC(=O)NC8=O)cc7F)CC6)CC5)C4)c(=O)c3c2)c1C#N` (stereo not drawn) [Example 22, 6-[2-cyano-3-[[ethyl(methyl)sulfamoyl]amino]-6-fluorophenoxy]-3-[7-[2-[4-[4-[(2,6-dioxopiperidin-3-yl)amino]-2-fluorophenyl]piperidin-1-yl]acetyl]-7-azaspiro[3.5]nonan-2-yl]-4-oxoquinazoline], half-maximal degradation (A375.10 cells, 24 h) (DC50) was put at 11.2 nM. For the same compound, the Emax under setting [1] is 11.5%.
